Patent US6930203B2, “Gelling agents or thickeners” (Applied NanoSystems B.V., priority 2001, dated 2005)

Assay: Solvent scope of N,N′-dialkylaldaramides (1%) or N,N′-dialkylpentaramides (1%): gelation/solubility behaviour in solvents
Format: physicochemical
Design: key: g = gelation; s = soluble; p = precipitates; c = crystallizes; ns = not soluble; v = viscous; g* = unstable gel, precipitates; cg = crystalline gel
Conditions: 1% gelling agent
From the text: It will be understood that the use of the present gelling agents or thickeners to prepare a gel or to thicken a composition is also encompassed by the invention. As is well known, gelling behavior of compounds or compositions is highly unpredictable. […] Preferably, the gelling phenomenon is thermo reversible.
Preferred examples include aromatic and nonaromatic hydrocarbons, alcohols, ethers, esters, aldehydes, alkanoic acids, epoxides, amines, halogenated hydrocarbons, silicon oils, vegetable oils, phosphoric esters, sulfoxides, water and mixtures thereof. In order to obtain a gel, the gelling agent or thickener is preferably mixed with the composition to be transformed to a gel in an amount of between 0.01 and 50 wt. %, based on the weight of the composition. In a preferred embodiment, the mixture of the gelling agent or thickener and the composition is heated to allow for an even better gel formation or thickening. Typically, the heating will involve raising the temperature of the mixture to about 30-175° C. until a clear solution is obtained. In an alternative embodiment, the gelling agent is first dissolved in a polar or apolar solvent and then added to or sprayed into a composition or solvent to be converted into a gel.
Solvent scope of N,N′-dialkylaldaramides (1%) or N,N′-dialkylpentaramides (1%) 1-24 refers to the compounds prepared in Examples 1-23)

| Gelation/solubility behaviour in 1,2-dichloroethane | Gelation/solubility behaviour in 2-octanol | Gelation/solubility behaviour in 2-propanol | Gelation/solubility behaviour in Cyclohexane | Gelation/solubility behaviour in Dimethylsulfoxide | Gelation/solubility behaviour in Ethanol | Gelation/solubility behaviour in Hexadecane | Gelation/solubility behaviour in Toluene | Gelation/solubility behaviour in Water | Gelation/solubility behaviour in n-butylacetate | Gelation/solubility behaviour in p-xylene | Gelation/solubility behaviour in 2-methoxyethanol (2-methoxyethanol) | Gelation/solubility behaviour in methyl benzoic acid (methyl benzoic acid) | Gelation/solubility behaviour in methyl laurate (methyl laurate) | Gelation/solubility behaviour in silicon oil (silicon oil) | Compound |
| --- | --- | --- | --- | --- | --- | --- | --- | --- | --- | --- | --- | --- | --- | --- | --- |
| ns | ns | c | ns | s | c | ns | ns | ns | ns | ns | – | – | – | – | CCCCCCCCNC(=O)[C@@H](O)[C@@H](O)[C@H](O)[C@@H](O)C(=O)NCCCCCCCC [Example 8, dioctyl D-glucaramide] |
| ns | ns | c | ns | c | c | ns | ns | ns | ns | ns | – | – | – | – | dicyclohexyl galactaramide [Example 7] |
| – | – | – | p | – | – | – | – | – | p | p | p | p | p | v | O=C(NC1CCCCC1)[C@@H](O)[C@@H](O)[C@H](O)[C@@H](O)C(=O)NC1CCCCCCCCCCC1 [Example 23, N1-cyclododecyl, N6-cyclohexyl D-glucaramide] |
| Ns | Ns | – | Ns | – | – | Ns | Ns | Ns | Ns | Ns | – | – | – | – | CCCCNC(=O)[C@@H](O)[C@@H](O)[C@H](O)[C@H](O)C(=O)NCCCC [Example 2, dibutyl D-mannaramide] |
| p | p | p | g | p | p | ns | p | – | p | p | – | – | – | – | CO[C@@H]([C@H](O)[C@H](O)C(=O)NC1CCCCCCCCCCC1)[C@@H](O)C(=O)NC1CCCCCCCCCCC1 [Example 22, 3-O-methyl-dicyclododecyl D-glucaramide] |
| s | p | p | ns | s | s | ns | p | ns | p | p | – | – | – | – | O=C(NC1CCCCC1)[C@@H](O)[C@@H](O)[C@@H](O)C(=O)NC1CCCCC1 [Example 4, dicyclohexyl D-ribaramide] |
| c | p | c | ns | c | ns | ns | ns | ns | ns | ns | – | – | – | – | CCCCCCCCCCCCNC(=O)[C@@H](O)[C@@H](O)[C@H](O)[C@H](O)C(=O)NCCCCCCCCCCCC [Example 13, didodecyl D-mannaramide] |
| c | p | c | ns | s | c | ns | p | ns | p | p | – | – | – | – | CO[C@@H]([C@H](O)[C@H](O)C(=O)NC1CCCCC1)[C@@H](O)C(=O)NC1CCCCC1 [Example 20, 3-O-methyl-dicyclohexyl D-glucaramide] |
| c | c | c | p | c | c | p | p | ns | c | p | – | – | – | – | CCCCCCCC/C=C\CCCCCCCCNC(=O)[C@@H](O)[C@@H](O)[C@H](O)[C@@H](O)C(=O)NCCCCCCCC/C=C\CCCCCCCC [Example 19, dioleyl D-glucaramide] |
| c | s | cg | ns | p | p | ns | ns | ns | ns | ns | – | – | – | – | O=C(NC1CCCCCCCCCCC1)[C@@H](O)[C@@H](O)[C@H](O)[C@H](O)C(=O)NC1CCCCCCCCCCC1 [Example 16, dicyclododecyl D-mannaramide] |
| ns | ns | c | ns | c | c | ns | ns | ns | ns | ns | – | – | – | – | CCCCCCCCNC(=O)[C@@H](O)[C@@H](O)[C@H](O)[C@H](O)C(=O)NCCCCCCCC [Example 9, dioctyl D-mannaramide] |

| Compound | Gelation/solubility behaviour in 1,2-dichloroethane | Gelation/solubility behaviour in 2-octanol | Gelation/solubility behaviour in 2-propanol | Gelation/solubility behaviour in Cyclohexane | Gelation/solubility behaviour in Dimethylsulfoxide | Gelation/solubility behaviour in Ethanol | Gelation/solubility behaviour in Hexadecane | Gelation/solubility behaviour in Toluene | Gelation/solubility behaviour in Water | Gelation/solubility behaviour in n-butylacetate | Gelation/solubility behaviour in p-xylene | Gelation/solubility behaviour in 2-methoxyethanol (2-methoxyethanol) | Gelation/solubility behaviour in methyl benzoic acid (methyl benzoic acid) | Gelation/solubility behaviour in methyl laurate (methyl laurate) | Gelation/solubility behaviour in silicon oil (silicon oil) |
| --- | --- | --- | --- | --- | --- | --- | --- | --- | --- | --- | --- | --- | --- | --- | --- |
| CCCCNC(=O)[C@@H](O)[C@@H](O)[C@H](O)[C@@H](O)C(=O)NCCCC [Example 1, dibutyl D-glucaramicle] | ns | – | – | ns | – | – | ns | ns | ns | ns | ns | – | – | – | – |
